# Results as given in patent US20100323990A1, “SHIP 1 MODULATOR PRODRUGS” (THE UNIVERSITY OF BRITISH COLUMBIA, priority 2006, published 2010).
# What was measured:
# J774.1a macrophage cells [1] = assay: Macrophage TNF-α production (Assay 2); format: cell-based; conditions: 10 μg/mL test compound, 100 ng/mL LPS, supernatants after 2 hr and 5 hr; further: key: a ‘+’ indicates a positive result for desired activity; a ‘−’ indicates a negative result for desired activity
# Protocol: (§1) Assay 1) In vitro testing in a SHIP enzyme assay. Test compounds were dissolved in a suitable solvent (e.g. EtOH, DMSO and others) and diluted into aqueous buffer (20 mM Tris HCl, pH 7.5 and 10 mM MgCl2). SHIP enzyme assays were performed in 96-well microtitre plates with 10 ng of enzyme/well in a total volume of 25 μL of 20 mM Tris HCl, pH 7.5 and 10 mM MgCl2. SHIP enzyme was incubated with test extracts (provided in solvent) or vehicle for 15 min at 23° C. before the addition of 100 μM inositol-1,3,4,5-tetrakisphosphate (Echelon Biosciences Inc, Salt Lake City, Utah). After 20 min at 37° C. and the amount of inorganic phosphate released assessed by the addition of Malachite Green reagent and absorbance measurement at 650 nm. Assay 2) Macrophage TNF-α production. J774.1a macrophage cells were treated with 10 μg/mL of test compound dissolved in solvent (e.g. cyclodextran) for 40 minutes prior to the addition of 100 ng/mL LPS. Culture supernatants were collected after 2 hr and 5 hr for TNF-α determination by ELISA. Assay 3) Macrophage TNF-α NO assay. J774.1a macrophage cells were treated with 10 μg/ml of test compound dissolved in solvent for 40 minutes prior to the addition of LPS. Culture supernatants were collected after 24 hr. for determination of NO concentration using the Griess reagent. Assay 4) Stimulation of mast cells by FcεRI crosslinking. Mast cells were pre-loaded overnight in BMMC medium lacking IL-3 with 0.1 μg/ml anti-DNP IgE (SPE-7, Sigma, Oakville, Ont). For calcium flux measurements, cells were incubated with 2 μM fura 2-acetoxymethyl ester (Molecular Probes, Eugene, Oreg.) in Tyrode's buffer at 23° C. for 45 min. Cells were then washed and incubated in the presence of the test compound 30 min prior to stimulation with the indicated concentration of DNP-human serum albumin (DNP-HSA). Calcium influx was monitored by spectrofluorometry as described previously. For analysis of intracellular signaling, cells were pre-loaded with anti-DNP IgE as above, pre-treated with the test compound for 30 min at 37° C. and stimulated with 20 ng/ml DNP-HSA for 5 min. Total cell lysates were then prepared and analyzed for phospho-PKB, phospho-p38^MAPK, phospho-MAPK, Grb-2 (Cell Signalling, Mississauga, Ont) and SHIP^6 by immunoblot analysis. Assay 5) Mouse acute cutaneous anaphylaxis model. 6-8 week old CD1 mice (University of British Columbia Animal Facility, Vancouver, BC) were sensitized to the hapten DNP by cutaneous application of 25 μL of 0.5% dinitrofluorobenzene (DNFB) (Sigma, Oakville, Ont) in acetone to the shaved abdomen of mice for two consecutive days. 24 hrs later, test substances (dissolved in 10 μL of 1:2 DMSO:MeOH) were painted on the right ear while the left ear received vehicle control. 30 min after drug application, DNFB was applied to both ears to induce mast cell degranulation. A 6 mm punch was taken from the ear and immediately frozen on dry ice for subsequent determination of neutrophil myeloperoxidase (MPO) activity. Assay 6) Mouse endotoxemia model. 6-8 week old C57B16 mice (VCHRI Mammalian Model of Human Disease Core Facility, Vancouver, BC) were orally administered the test compound 30 min prior to an IP injection of 2 mg/kg of LPS (E. Coli serotype 0111:B4, Sigma, Oakville, Ont). Blood was drawn 2 hrs later for determination of plasma TNFα by ELISA. Assay 7) In vitro Mulitple Myeloma (MM) assay. The ability of SHIP activators to reduce tumor cell survival was assessed in MM cell lines treated with the test compound. The lines OPM1, OPM2, MM.1S and RPMI 8226 were plated at a density of 1×10^5 cells/mL in 200 μL of medium with various concentrations of the test compound, and viable cell numbers were determined on day 3 and day 5 by trypan blue exclusion. The lines RPMI 8226 and U266 were plated at a density of 1×10^6 cells/mL in 250 μL of medium with various concentrations of the test compound. At day 4, the medium of each culture was replaced by fresh medium containing the same concentration of test compound. […]
# J774.1a macrophage cells [2] = assay: Macrophage TNF-α NO assay (Assay 3), Griess reagent; format: cell-based; conditions: 10 μg/ml test compound, LPS, supernatants after 24 hr; further: key: a ‘+’ indicates a positive result for desired activity; a ‘−’ indicates a negative result for desired activity
# Protocol: as §1
# Mast cells = assay: Stimulation of mast cells by FcεRI crosslinking (Assay 4); format: cell-based; conditions: test compound 30 min prior to DNP-HSA
# Protocol: as §1, with “6-8 week old CD1 mice (University of British Columbia Animal Facility, Vancouver, BC) were sensitized to the hapten DNP by cutaneous application of 25 μL of 0.5% dinitrofluorobenzene (DNFB) (Sigma, Oakville, Ont) in acetone to the shaved abdomen of mice for two consecutive days. 24 hrs later, test substances (dissolved in 10 μL of 1:2 DMSO:MeOH) were painted on the right ear while the left ear received vehicle control. 30 min after drug application, DNFB was applied to both ears to induce mast cell degranulation. A 6 mm punch was taken from the ear and immediately frozen on dry ice for subsequent determination of neutrophil myeloperoxidase (MPO) activity. Assay 6) Mouse endotoxemia model. 6-8 week old C57B16 mice (VCHRI Mammalian Model of Human Disease Core Facility, Vancouver, BC) were orally administered the test compound 30 min prior to an IP injection of 2 mg/kg of LPS (E. Coli serotype 0111:B4, Sigma, Oakville, Ont). Blood was drawn 2 hrs later for determination of plasma TNFα by ELISA. Assay 7) In vitro Mulitple Myeloma (MM) assay.” left out, “exclusion.” for “exclusion. The lines RPMI 8226 and U266 were plated at a density of 1×10^6 cells/mL in 250 μL of medium with various concentrations of the test compound. At day 4, the medium of each culture was replaced by fresh medium containing the same concentration of test compound.”
# plasma TNFα = assay: Mouse endotoxemia model (Assay 6), plasma TNFα by ELISA; format: in vivo, mice; conditions: oral, 30 min prior to IP 2 mg/kg LPS, plasma TNFα 2 hrs later
# Protocol: as §1, with “6-8 week old C57B16 mice (VCHRI Mammalian Model of Human Disease Core Facility, Vancouver, BC) were orally administered the test compound 30 min prior to an IP injection of 2 mg/kg of LPS (E. Coli serotype 0111:B4, Sigma, Oakville, Ont). Blood was drawn 2 hrs later for determination of plasma TNFα by ELISA. Assay 7) In vitro Mulitple Myeloma (MM) assay.” left out, “exclusion.” for “exclusion. The lines RPMI 8226 and U266 were plated at a density of 1×10^6 cells/mL in 250 μL of medium with various concentrations of the test compound. At day 4, the medium of each culture was replaced by fresh medium containing the same concentration of test compound.”
# J2M macrophage cells = assay: TNFα production in LPS-stimulated J2M macrophages (Example 10); format: cell-based; conditions: 2 ng/mL LPS
# Protocol: An assay to determine the inhibition of macrophage TNFα by varying concentrations of Compound 106 was carried out as follows.
# J2M macrophage cells were plated at 2×10^5 cells/well in 24 well plates. The next day the media was changed and Compound 106 or PBS carrier were added to the wells at the indicated concentrations for 30 min prior to stimulation of the cells with 2 ng/mL lipopolysaccharide (LPS). LPS activation of macrophages leads to production of TNFa which can be detected in the culture supernatant and quantified by ELISA. The results are depicted in a graph in FIG. 2.
# [3] = test system: Bone marrow derived mast cells; assay: Calcium influx in mast cells after IgE receptor crosslinking (Example 11); format: cell-based; conditions: 1 hr treatment, anti IgE antibody
# Protocol: An assay to determine the inhibition of calcium influx in mast cells by Compound 106 was carried out as follows.
# The activation of mast cells by IgE receptor crosslinking leads to an influx of calcium into the cells, followed by degranulation and secretion of pro-inflammatory mediator. Bone marrow derived mast cells were loaded with the fluorescent calcium indicator dye Fura-2 prior to treatment for 1 hr with Compound 106 or PBS carrier. Cells were then stimulated or not with an anti IgE antibody to cross-link the IgE receptors. Calcium influx was then monitored by fluorimetry. The results are depicted in a graph in FIG. 3.
structure (smiles),measurement,setting,value
Cc1cc(OC(=O)C(N)CCCCN)cc2c1[C@]1(C)CCC3C(C)(C)CCC[C@]3(C)[C@H]1C2 (stereo partly drawn) [Compound 106],"Assay 2: Macrophage TNF-α production, desired activity",J774.1a macrophage cells [1],+
same,"Assay 3: Macrophage NO assay, desired activity",J774.1a macrophage cells [2],+
same,"Assay 4: Stimulation of mast cells by FcεRI crosslinking, desired activity",Mast cells,+
same,"Assay 6: Mouse endotoxemia model, desired activity",plasma TNFα,+
same,inhibition of macrophage TNFα production,J2M macrophage cells,Inhibits Macrophage TNFα Production
same,inhibition of calcium influx in mast cells,[3],Inhibits Calcium Influx in Mast Cells
